Laboratory results taken from patent publication US20110160196A1, “FACTOR XA INHIBITORS” (Millennium Pharmaceuticals, Inc., priority 2007, published 2011).

target: T1, human plasma protein factor Xa (Homo sapiens, UniProt P00742); assay: Factor Xa IC50 determination (cleavage of paranitroanilide substrate S-2765); assay type: biochemical; conditions: factor Xa 1 nM, S-2765 100 μM, Tris buffered saline pH 7.4, read at 405 nm
T1 construct: The human plasma protein factor Xa was purchased; purchased Haematologic Technologies (Essex Junction, Vt.); host or cells: human plasma
T1 sequence (P00742 235-488 limits assumed): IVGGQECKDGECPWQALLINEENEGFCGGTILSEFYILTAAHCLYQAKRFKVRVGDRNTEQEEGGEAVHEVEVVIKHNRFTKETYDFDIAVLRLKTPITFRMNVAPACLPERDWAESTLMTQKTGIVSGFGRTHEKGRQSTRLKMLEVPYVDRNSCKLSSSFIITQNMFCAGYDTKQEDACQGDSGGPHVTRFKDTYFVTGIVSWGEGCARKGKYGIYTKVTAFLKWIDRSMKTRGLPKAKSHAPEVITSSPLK
T1 sequence (P00742 41-179 partner limits assumed): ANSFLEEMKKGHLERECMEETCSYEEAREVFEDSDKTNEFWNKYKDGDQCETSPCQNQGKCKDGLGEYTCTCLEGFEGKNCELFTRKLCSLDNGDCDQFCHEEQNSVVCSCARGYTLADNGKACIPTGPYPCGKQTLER
Summary of the method: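 Human plasma factor Xa (1 nM) preincubated 5 min at room temperature with inhibitor (0.01 nM–10 μM) in Tris-buffered saline pH 7.4 with 5 mM CaCl2, 0.1% BSA, 5% DMSO. S-2765 added at 100 μM final; pNA release followed at 405 nm for 2 min. IC50 from four-parameter fit of initial velocities.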

`O=C(NCc1cn(-c2ccc(-n3ccccc3=O)cc2OCc2ccncc2)nn1)c1ccc(Cl)s1` [Compound 167, 5-Chloro-N-((1-(4-(2-oxopyridin-1(2H)-yl)-2-(pyridin-4-ylmethoxy)phenyl)-1H-1,2,3-triazol-4-yl)methyl)thiophene-2-carboxamide] and `O=C(NCc1cn(-c2ccc(-n3ccccc3=O)cc2OCc2cccnc2)nn1)c1ccc(Cl)s1` [Compound 165, 5-Chloro-N-((1-(4-(2-oxopyridin-1(2H)-yl)-2-(pyridin-3-ylmethoxy)phenyl)-1H-1,2,3-triazol-4-yl)methyl)thiophene-2-carboxamide] cannot be ordered by IC50: ≤ 100 nM for the first, ≤ 100 nM for the second.

`O=C(NCc1cn(-c2ccc(-n3ccccc3=O)cc2OCc2ccccn2)nn1)c1ccc(Cl)s1` [Compound 169, 5-Chloro-N-((1-(4-(2-oxopyridin-1(2H)-yl)-2-(pyridin-2-ylmethoxy)phenyl)-1H-1,2,3-triazol-4-yl)methyl)thiophene-2-carboxamide] and `O=C(NCc1cn(-c2ccc(-n3ccccc3=O)cc2OCc2ncc[nH]2)nn1)c1ccc(Cl)s1` [Compound 177, N-((1-(2-((1H-Imidazol-2-yl)methoxy)-4-(2-oxopyridin-1(2H)-yl)phenyl)-1H-1,2,3-triazol-4-yl)methyl)-5-chlorothiophene-2-carboxamide] cannot be ordered by IC50: ≤ 100 nM for the first, ≤ 100 nM for the second.

`CNCCN(C)C(=O)c1cc(-n2ccccc2=O)ccc1-n1cc(CNC(=O)c2ccc(Cl)s2)nn1` [Compound 110, 5-Chloro-N-((1-(2-(methyl(2-(methylamino)ethyl)carbamoyl)-4-(2-oxopyridin-1(2H)-yl)phenyl)-1H-1,2,3-triazol-4-yl)methyl)thiophene-2-carboxamide] and `CN(C)Cc1cc(-n2ccccc2=O)ccc1-n1cc(CNC(=O)c2ccc(Cl)s2)nn1` [Compound 121, 5-Chloro-N-((1-(2-((dimethylamino)methyl)-4-(2-oxopyridin-1(2H)-yl)phenyl)-1H-1,2,3-triazol-4-yl)methyl)thiophene-2-carboxamide] cannot be ordered by IC50: 100 to 500 nM for the first, ≤ 100 nM for the second.

`O=C(NCc1nnn(-c2ccc(-n3ccccc3=O)cc2OC[C@H](O)CO)c1I)c1ccc(Cl)s1` [Compound 154, 5-Chloro-N-((1-(2-((R)-2,3-dihydroxypropoxy)-4-(2-oxopyridin-1(2H)-yl)phenyl)-5-iodo-1H-1,2,3-triazol-4-yl)methyl)thiophene-2-carboxamide] and `O=C(NCc1nnn(-c2ccc(-n3ccccc3=O)cc2OC[C@@H](O)CO)c1I)c1ccc(Cl)s1` [Compound 155, 5-Chloro-N-((1-(2-((S)-2,3-dihydroxypropoxy)-4-(2-oxopyridin-1(2H)-yl)phenyl)-5-iodo-1H-1,2,3-triazol-4-yl)methyl)thiophene-2-carboxamide] cannot be ordered by IC50: 100 to 500 nM for the first, ≤ 100 nM for the second.

`O=C(NCc1cn(-c2ccc(N3CCCCC3=O)cc2N2CCSCC2)nn1)c1ccc(Cl)s1` [Compound 157, 5-Chloro-N-((1-(4-(2-oxopiperidin-1-yl)-2-thiomorpholinophenyl)-1H-1,2,3-triazol-4-yl)methyl)thiophene-2-carboxamide] and `O=C(NCc1cn(-c2ccc(N3CCCCC3=O)cc2N2CCS(=O)(=O)CC2)nn1)c1ccc(Cl)s1` [Compound 158, 5-Chloro-N-((1-(4-(2-oxopiperidin-1-yl)-2-((1,1-dioxo)thiomorpholino)phenyl)-1H-1,2,3-triazol-4-yl)methyl)thiophene-2-carboxamide] cannot be ordered by IC50: ≤ 100 nM for the first, ≤ 100 nM for the second.

`O=C(NCc1cn(-c2ccc(-n3ccccc3=O)cc2CN2CCS(=O)(=O)CC2)nn1)c1ccc(Cl)s1` [Compound 163, 5-Chloro-N-((1-(4-(2-oxopyridin-1(2H)-yl)-2-(1,1,- dioxothiomorpholinomethyl)phenyl)-1H-1,2,3-triazol-4-yl)methyl)thiophene-2-carboxamide] and `O=C(NCc1cn(-c2ccc(-n3ccccc3=O)cc2CN2CCOCC2)nn1)c1ccc(Cl)s1` [Compound 160, 5-Chloro-N-((1-(2-(morpholinomethyl)-4-(2-oxopyridin-1(2H)-yl)phenyl)-1H-1,2,3-triazol-4-yl)methyl)thiophene-2-carboxamide] cannot be ordered by IC50: ≤ 100 nM for the first, ≤ 100 nM for the second.

`CN(C)C1CCN(c2cc(-n3ccccc3=O)ccc2-n2cc(CNC(=O)c3ccc(Cl)s3)nn2)CC1` [Compound 16, 5-Chloro-N-((1-(2-(4-(dimethylamino)piperidin-1-yl)-4-(2-oxopyridin-1(2H)-yl)phenyl)-1H-1,2,3-triazol-4-yl)methyl)thiophene-2-carboxamide] and `CC(=O)NC1CCN(c2cc(-n3ccccc3=O)ccc2-n2cc(CNC(=O)c3ccc(Cl)s3)nn2)CC1` [Compound 18, N-((1-(2-(4-Acetamidopiperidin-1-yl)-4-(2-oxopyridin-1(2H)-yl)phenyl)-1H-1,2,3-triazol-4-yl)methyl)-5-chlorothiophene-2-carboxamide] cannot be ordered by IC50: ≤ 100 nM for the first, ≤ 100 nM for the second.

`COc1cc(-n2ccccc2=O)ccc1-n1cc(CNC(=O)c2ccc(Cl)s2)nn1` [Compound 56, 5-Chloro-N-((1-(2-methoxy-4-(2-oxopyridin-1(2H)-yl)phenyl)-1H-1,2,3-triazol-4-yl)methyl)thiophene-2-carboxamide] and `O=C(NCc1cn(-c2ccc(-n3ccccc3=O)cc2OC(F)(F)F)nn1)c1ccc(Cl)s1` [Compound 99, 5-Chloro-N-((1-(4-(2-oxopyridin-1(2H)-yl)-2-(trifluoromethoxy)phenyl)-1H-1,2,3-triazol-4-yl)methyl)thiophene-2-carboxamide] cannot be ordered by IC50: ≤ 100 nM for the first, ≤ 100 nM for the second.

`CN(C)CCOc1cc(-n2ccccc2=O)ccc1-n1cc(CNC(=O)c2ccc(Cl)s2)nn1` [Compound 85] and `NCCCOc1cc(-n2ccccc2=O)ccc1-n1cc(CNC(=O)c2ccc(Cl)s2)nn1` [Compound 68, N-((1-(2-(3-Aminopropoxy)-4-(2-oxopyridin-1(2H)-yl)phenyl)-1H-1,2,3-triazol-4-yl)methyl)-5-chlorothiophene-2-carboxamide] cannot be ordered by IC50: ≤ 100 nM for the first, ≤ 100 nM for the second.

`CNc1cc(-c2cc(-n3ccccc3=O)ccc2-n2cc(CNC(=O)c3ccc(Cl)s3)nn2)ccn1` [Compound 141, 5-Chloro-N-((1-(2-(2-(methylamino)pyridin-4-yl)-4-(2-oxopyridin-1(2H)-yl)phenyl)-1H-1,2,3-triazol-4-yl)methyl)thiophene-2-carboxamide] and `COc1cc(-c2cc(-n3ccccc3=O)ccc2-n2cc(CNC(=O)c3ccc(Cl)s3)nn2)ccn1` [Compound 138, 5-Chloro-N-((1-(2-(2-methoxypyridin-4-yl)-4-(2-oxopyridin-1(2H)-yl)phenyl)-1H-1,2,3-triazol-4-yl)methyl)thiophene-2-carboxamide] cannot be ordered by IC50: ≤ 100 nM for the first, ≤ 100 nM for the second.

`NC(=O)N1CCN(c2cc(-n3ccccc3=O)ccc2-n2cc(CNC(=O)c3ccc(Cl)s3)nn2)CC1` [Compound 15, 4-(2-(4-((2-Chlorothiophene-5-carboxamido)methyl)-1H-1,2,3-triazol-1-yl)-5-(2-oxopyridin-1(2H)-yl)phenyl)piperazine-1-carboxamide] and `CC(=O)N1CCN(c2cc(-n3ccccc3=O)ccc2-n2cc(CNC(=O)c3ccc(Cl)s3)nn2)CC1` [Compound 13, N-((1-(2-(4-Acetylpiperazin-1-yl)-4-(2-oxopyridin-1(2H)-yl)phenyl)-1H-1,2,3-triazol-4-yl)methyl)-5-chlorothiophene-2-carboxamide] cannot be ordered by IC50: ≤ 100 nM for the first, ≤ 100 nM for the second.

`O=C(NCc1cn(-c2ccc(-n3ccccc3=O)cc2OCCCN2CCCCC2)nn1)c1ccc(Cl)s1` [Compound 94, 5-Chloro-N-((1-(4-(2-oxopyridin-1(2H)-yl)-2-(3-(piperidin-1-yl)propoxy)phenyl)-1H-1,2,3-triazol-4-yl)methyl)thiophene-2-carboxamide] and `O=C(NCc1cn(-c2ccc(-n3ccccc3=O)cc2OCCCN2CCOCC2)nn1)c1ccc(Cl)s1` [Compound 95, 5-Chloro-N-((1-(2-(3-morpholinopropoxy)-4-(2-oxopyridin-1(2H)-yl)phenyl)-1H-1,2,3-triazol-4-yl)methyl)thiophene-2-carboxamide] cannot be ordered by IC50: ≤ 100 nM for the first, ≤ 100 nM for the second.

`O=C(NCc1cn(-c2ccc(-n3ccccc3=O)cc2N2CCCC2)nn1)c1ccc(Cl)s1` [Compound 3, 5-Chloro-N-((1-(4-(2-oxopyridin-1(2H)-yl)-2-(pyrrolidin-1-yl)phenyl)-1H-1,2,3-triazol-4-yl)methyl)thiophene-2-carboxamide] and `O=C(NCc1cn(-c2ccc(-n3ccccc3=O)cc2N2CCC[C@H](O)C2)nn1)c1ccc(Cl)s1` [Compound 23, 5-Chloro-N-((1-(2-((S)-3-hydroxypiperidin-1-yl)-4-(2-oxopyridin-1(2H)-yl)phenyl)-1H-1,2,3-triazol-4-yl)methyl)thiophene-2-carboxamide] cannot be ordered by IC50: ≤ 100 nM for the first, ≤ 100 nM for the second.

`O=C1CN(c2cc(N3CCCCC3=O)ccc2-n2cc(CNC(=O)c3ccc(Cl)s3)nn2)CCN1` [Compound 159, 5-Chloro-N-((1-(2-(3-oxopiperazin-1-yl)-4-(2-oxopiperidin-1-yl)phenyl)-1H-1,2,3-triazol-4-yl)methyl)thiophene-2-carboxamide] and `CC(=N)N1CCN(c2cc(-n3ccccc3=O)ccc2-n2cc(CNC(=O)c3ccc(Cl)s3)nn2)CC1` [Compound 14, 5-Chloro-N-((1-(2-(4-(1-iminoethyl)piperazin-1-yl)-4-(2-oxopyridin-1(2H)-yl)phenyl)-1H-1,2,3-triazol-4-yl)methyl)thiophene-2-carboxamide] cannot be ordered by IC50: ≤ 100 nM for the first, ≤ 100 nM for the second.

`O=C(NCc1cn(-c2ccc(-n3ccccc3=O)cc2OCCn2cccc2)nn1)c1ccc(Cl)s1` [Compound 180, N-((1-(2-(2-(1H-Pyrrol-1-yl)ethoxy)-4-(2-oxopyridin-1(2H)-yl)phenyl)-1H-1,2,3-triazol-4-yl)methyl)-5-chlorothiophene-2-carboxamide] and `COCCN(C)c1cc(-n2ccccc2=O)ccc1-n1cc(CNC(=O)c2ccc(Cl)s2)nn1` [Compound 29, 5-Chloro-N-((1-(2-((2-mcthoxyethyl)(methyl)amino)-4-(2-oxopyridin-1(2H)-yl)phenyl)-1H-1,2,3-triazol-4-yl)methyl)thiophene-2-carboxamide] cannot be ordered by IC50: ≤ 100 nM for the first, ≤ 100 nM for the second.
